Test results from patent publication US9474774B2, “Pyridine alkaloids, preparation process thereof, and the uses of the pyridine alkaloids” (FOOD INDUSTRY RESEARCH AND DEVELOPMENT INSTITUTE, priority 2010, dated 2016).
pIC50: −log10 of the molar value. “And” between values parts separate entries of the source, which are not always exact repeats. Identical values can stand only once. Like-named read-outs stand apart in the source and are kept apart here.

Columns and labels:
[1] = test system: adiponectin; test: Cytosolic adiponectin ELISA in differentiated 3T3-L1 cells; assay type: cell-based, Mouse; conditions: insulin model and DMI model, 5 μg/mL (FIG. 7)
Method: 3T3-L1 cells were treated with Monasnicotinates A, B, C and D (prepared in Example 3) as described in Example 5. Nuclear and cytosolic proteins of the differentiated 3T3-L1 cells were extracted and the nuclear PPARγ and cytosolic adiponectin contents were analyzed using commercial kits.
(§1) 3T3-L1 cells were incubated and differentiated on petri dish (9 cm) for 9 days and washed with PBS. 1 ml of buffer A working solution (Affymetrix® Nuclear Extraction Kits, Panomics, Inc.; freshly prepared according to the instructions) was added to the petri dish, and the petri dish was placed on ice and shaken for 10 minutes on a shaker. Cells on the petri dish were transferred to a 1.5 ml centrifuge tube and centrifuged at 14,000 rpm for 3 minutes. The supernatant, the cytosol fraction, was collected for further analysis. 0.5 ml of buffer B working solution (Affymetrix® Nuclear Extraction Kits, Panomics, Inc.; freshly prepared according to the instructions) was added to the centrifuge tube to re-suspend the cell pellet and the centrifuge tube was placed on ice and shaken for two hours on a shaker. The centrifuge tube was then centrifuged at 14,000 rpm for 5 minutes. The supernatant, the nucleus fraction, was collected for further analysis.
Cytosolic adiponectin in the cytosol fraction was analyzed using Quantikine Mouse Adiponectin immunoassay (R&D systems) according to the instructions.

[2] = test system: 3T3-L1 preadipocytes; test: 3T3-L1 preadipocyte differentiation, insulin differentiation model; assay type: cell-based; conditions: sample concentration 2 μg/ml, control = 100
Method: (§2) Preadipocytes were prepared according to the method described by Waki et al., (2007, “The small molecule harmine is an antidiabetic cell-type-specific regulator of PPARγ expression.” Cell Metabolism, 5(5): 357-370) and Huang et al., (2005, “Herbal or natural medicines as modulators of peroxisome proliferator-activated receptors and related nuclear receptors for therapy of metabolic syndrome.” Basic and Clinical Pharmacology and Toxicology, 96: 3-14.). Preadipocytes were cultured in DMEM (Dulbecco's Modified Eagle's Medium-high glucose, Sigma D-7777) containing 10% of fetal bovine serum (FBS) and incubated at 37° C. in a 5% CO2 incubator.
(§3) Before the differentiation induction experiments, the cells were plated into either 96- or 24-well plates (the concentration of cells in each well was about 2×10^4/cm^2). The plates were incubated for about two days to allow the cells to proliferate to confluence, and then maintained for another two days. The medium was changed to different differentiation media according to different experiments. The day of switching to differentiation medium was designated as day zero.
The differentiation medium used in insulin differentiation model was DMEM with 10% FBS comprising 10 μg/ml of insulin. Differentiation media containing each of the four test compounds, Monasnicotinates A, B, C and D, were added to each well of the 24- or 96-well 3T3-L1 preadipocyte plates (the final concentration of the test compounds in each well is 2 μg/ml). The control group was the culture with only the differentiation medium and no sample. The cultures were incubated at 37° C. in a 5% CO2 incubator for seven days (during the period, the differentiation medium and sample were replaced with fresh ones twice), and then the medium was replaced by DMEM with 10% FBS. The cultures were maintained until day 9 or day 10. The cells of the experiment groups and control groups at day 9 or day 10 were stained with AdipoRed and the concentrations of triglyceride were analyzed.
(§4) The 96-well plates were rinsed with PBS, and 200 μl of PBS and 5 μl of AdipoRed reagent (Lonze Walkersville, Inc., Walkersville, Md., USA, Catalog No. PT-7009) were added to each well. After 10 to 15 minutes, the plates were read with a spectrofluorometer (Infinite M200) set at an excitation wavelength of 485 nm and an emission wavelength of 572 nm. The fluorescent data of the experiment group was divided by the fluorescent data of the control group to obtain a percentage of induction activity.
(§5) The 24-well plates were rinsed with PBS, and the cells were washed off with 0.1 ml of 1% Triton λ 100 per well. The cells were then frozen, thawed and centrifuged (10,000 rpm/5 min) and the supernatant were collected. An aliquot of 0.05 ml of the supernatant was analyzed using Triglycerol assay Kit (Audit Diagnostics, Ltd.).
(§6) The protein amounts were analyzed using Bio-Rad Dc Protein assay reagent (Bio-Rad). The triglyceride concentration was divided by the protein concentration obtained using Bio-Rad Dc Protein assay to calculated the amount (μg) of triglyceride per μg protein. The triglyceride amounts of the experiment groups were divided by those of the control groups to determine the differentiation induction activity of the samples.
(§7) 3T3-L1 preadipocytes differentiation assay was conduct according to Example 5.

[3] = test system: PPARγ; test: Nuclear PPARγ ELISA in differentiated 3T3-L1 cells; assay type: cell-based; conditions: final sample concentration 5 μg/mL, control: medium only
Method: Nuclear and cytosolic proteins of the differentiated 3T3-L1 cells were extracted and the nuclear PPARγ and cytosolic adiponectin contents were analyzed using commercial kits.
as §1
Nuclear PPARγ in the nucleus fraction was analyzed using Transcription Factor PPARγ ELISA Kit (Panomics, Inc.) according to the instructions.

[4] = test system: 3T3-L1 preadipocytes; test: 3T3-L1 preadipocyte differentiation, DMI differentiation model; assay type: cell-based; conditions: for triglyceride droplets under inverted microscope: 5 μg/ml, vs DMI control; for TG (%): sample concentration 5 μg/ml, control = 100
Method: as §2, §3
The differentiation medium used in DMI differentiation model comprised an three-in-one differentiation inducer (DMI): dexamethasone (Sigma D-4902, dissolved in ethanol to produce a 0.25M stock solution), isobutyl-methylxanthine (Sigma 1-5879, dissolved in DMSO to produce a 0.5M stock solution), and insulin (Sigma I-6634, dissolved in 0.01N HCl to produce a 10 mg/ml stock solution). The final concentrations of dexamethasone, isobutyl-methylxanthine and insulin were 0.25 μM, 0.5 mM and 5 μg/ml, respectively.
The four test compounds, Monasnicotinates A, B, C and D, were dissolved in DMSO respectively to produce a 5 mg/ml stock solution. One ml of the differentiation medium containing test sample was added to each well of the 24-well 3T3-L1 preadipocyte plates (the final concentration of the sample in each well was 5 μg/ml). The control group was the culture with only the differentiation medium and no sample. The cultures were incubated at 37° C. in a 5% CO2 incubator for three days, and then the medium was replaced by DMEM with 10% FBS. The cultures were maintained until day 9 or day 10, and the amounts of triglyceride in the cells were analyzed. The extents of differentiation (the amounts of oil droplets) were also examined under an inverted microscope.
as §4, §5, §6, §7

[5] = target: T1, PPARγ (Homo sapiens, UniProt P37231); test: LanthaScreen TR-FRET PPARγ competitive binding assay
T1 construct: purchased Invitrogen
T1 sequence (P37231 204-505 limits assumed): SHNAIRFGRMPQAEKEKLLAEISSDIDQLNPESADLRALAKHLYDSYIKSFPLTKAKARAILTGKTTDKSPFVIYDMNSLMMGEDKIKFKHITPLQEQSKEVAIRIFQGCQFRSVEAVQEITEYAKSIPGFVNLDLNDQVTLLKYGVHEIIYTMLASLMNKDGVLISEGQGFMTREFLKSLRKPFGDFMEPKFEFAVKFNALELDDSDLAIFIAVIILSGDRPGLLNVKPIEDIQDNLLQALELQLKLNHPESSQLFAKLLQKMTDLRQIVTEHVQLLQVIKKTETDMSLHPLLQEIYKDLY
Method: Monasnicotinates A, B, C and D were prepared according to Example 3 and Ethanol and ethyl acetate extracts of BCRC 930146-fermented rice were prepared according to Example 7. The binding activity of Monasnicotinates A, B, C and D and ethanol and ethyl acetate extracts of BCRC 930146-fermented rice to PPARγ and PPARα were analyzed using competitive binding assay kits (LanthaScreen TR-FRET PPARγ Binding Assay and Invitrogen PPARα Competitive Binding Assay) according to their instructions. Troglitazone and arachidonic acid were used as reference substances for PPARγ and PPARα ligand, respectively.

[6] = test system: LPS-stimulated macrophage cells RAW264.7; conditions: literature value; read-out: IC50, production of NO by LPS-stimulated RAW264.7 (reported, Motai and Kitanaka 2005); cited from earlier work
[7] = test system: LPS-stimulated macrophage cells RAW264.7; test: Inhibition of NO production induced by LPS (Griess reagent); assay type: cell-based, murine; conditions: Mus musculus, LPS 1 μg/mL, 24 hours
Method: (§8) The murine macrophage cell line RAW264.7 (BCRC 60001=ATCC TIB-71) was cultured in Dulbecco's modified Eagle's medium (DMEM, Gibco BRL Life Technologies, Inc.) supplemented with 10% heat inactivated fetal bovine serum (FBS) and incubated at 37° C. in a humidified 5% CO2 atmosphere with a 96-well flat-bottomed culture plate. After 24 hours, the condition medium was replaced with fresh DMEM and FBS. Then the three test compounds, Monasnicotinates A, C and D, (0, 1, 5, 10, and 20 μg/mL) were added respectively in the presence of lipopolysaccharide (LPS, 1 μg/mL; Sigma, Cat no: L-2654), and the plates were incubated at the same condition for 24 hours.
(§9) The cultured cells were then centrifuged and the supernatants were used for NO production measurement, with a MTT (3-(4,5-dimethylthiazol-2yl)-2,5-diphenyl tetrazolium bromide) assay to determine cell viability. The supernatant was mixed with an equal volume of the Griess reagent (1% sulfanilamide, 0.1% N-(1-naphthyl)ethyl-enediamine dihydrochloride in 2.5% phosphoric acid solution) and incubated for 10 min at room temperature. Nitrite concentration was determined by measuring the absorbance at 540 nm using an ELISA plate reader (μ Quant) (see Mosman, T., 1983, “Rapid colorimetric assay for cellular growth and survival: application to proliferation and cytotoxicity assays.” J. Immunol. Methods, 65: 55-63). The MTT colorimetric assay was modified from that of Mosmann (see Johansson, M., et al., 2002, “Biologically active secondary metabolites from the ascomycete A111-95.” J. Antibiot., 55: 104-106). The test is based upon the selective ability of living cells to reduce the yellow soluble salt, MTT, to a purple-blue insoluble formazan. MTT (Merck; dissolved in phosphate-buffered saline at 5 mg/mL) solution was added onto the attached cells mentioned above (10 μl per 100 μl culture) and incubated at 37° C. for 4 hours. Then, DMSO was added and the amount of colored formazan metabolite formed was determined by absorbance at 550 nm. The optical density of formazan formed in control (untreated) cells was taken as 100% viability.

[8] = test system: RAW264.7; test: MTT cell viability assay; assay type: cell-based, murine
Method: as §8, §9

SMILES	concentration of cytosolic adiponectin [1]	AdipoRed (%) [2] [%]	TG (%) [2] [%]	PPARγ expression (% of control) ([3]; DMI model)	PPARγ expression (% of control) ([3]; Insulin model)	triglyceride droplets under inverted microscope [4]	TG (%) [4] [%]	pIC50 [5]	pIC50 [6]	pIC50 [7]	Cytotoxicity (MTT assay) ([8]; at 10 μg/mL)	Cytotoxicity (MTT assay) ([8]; 1-10 μg/mL, with LPS treatment for 24 hours)	IC50 [7]	Cytotoxicity (MTT assay) ([8]; 1-20 μg/mL, with LPS treatment for 24 hours)
C/C=C/c1cc(/C=C(\CC(=O)CCCCC)C(C)=O)c(C(=O)OCC)cn1 [Monasnicotinate B, ethyl-4-((E)-2-acetyl-4-oxonon-1-enyl)-6-((E)-prop-1-enyl)nicotinate]	increase	287	132	147 ± 2 % of control	237 ± 9 % of control	more triglyceride droplets than the control culture	175	4.96						
O=c1c(O)c(-c2ccc(O)c(O)c2)oc2cc(O)cc(O)c12 [quercetin, reference compound]									4.57	4.58				
C/C=C/c1cc(/C=C(\CC(=O)CCCCCCC)C(C)=O)c(C(=O)OC)cn1 [Monasnicotinate C, methyl-4-((E)-2-acetyl-4-oxoundec-1-enyl)-6-((E)-prop-1-enyl)nicotinate]	increase	209	145	115 ± 1 % of control	333 ± 15 % of control	more triglyceride droplets than the control culture	132	4.74			significant cytotoxic effect			
C/C=C/c1cc(/C=C(\CC(=O)CCCCC)C(C)=O)c(C(=O)OC)cn1 [Monasnicotinate A, methyl-4-((E)-2-acetyl-4-oxonon-1-enyl)-6-((E)-prop-1-enyl)nicotinate]	increase	159	128	100 ± 7 % of control	139 ± 1 % of control	more triglyceride droplets than the control culture	159	4.38				did not show any significant cytotoxicity	5.72 µg/mL and 16 µM	
CCCCCC(=O)C/C(=C\c1cc(CCC)ncc1C(=O)OC)C(C)=O [Monasnicotinate D, (E)-methyl-4-(2-acetyl-4-oxonon-1-enyl)-6-propylnicotinate]	increase	247	169	166 ± 5 % of control	424 ± 19 % of control	more triglyceride droplets than the control culture	204	4.19					9.4 µg/mL and 24.8 µM	did not show any significant cytotoxicity
